This passage reports Crop yield results from patent publication US20110098332A1, “Insecticides for Increasing the Crop Yield” (BASF SE, priority 2007, published 2011).

For assay [1], the system named is Winter wheat (cultivar Türkis). As to the kind of experiment: Crop yield in winter wheat after seed treatment (field trial). In kind it is in vivo. The settings on record: seed treatment 50 ml/100 kg seeds (Regent FS 500, 25 g per 100 kg seeds), harvest 269 days after planting. The text has this:
(§1) The N-min analysis method used in the examples determines the content of mineral nitrogen compounds in the soil (0-90 cm depth) at the beginning of the vegetative period. For this purpose, samples are taken in a depth of 0 to 90 cm and mineral nitrogen compounds (ammonium compounds and nitrates) are extracted and analyzed. The method is described in R. Thun et al., “Die Untersuchung von Böden, Methodenbuch Bd. 1, 4th edition 1991, edition VDLUFA (Verband Deutscher Landwirtschaftlicher Untersuchungs- and Forschungsanstalten), Darmstadt, Germany.
Winter wheat seeds (cultivar Türkis) were treated with fipronil (used as commercially available product Regent FS 500; an FS formulation containing 500 g/l of active ccompound; 25 g per 100 kg seeds) in a HEGE 11 seed treatment apparatus. A part of the seeds remained untreated (control). Two days after the treatment, the seeds were planted in Böhl, Palatine, Germany, in a loamy sand with a pH of 6.7, and a tilling depth of 30 cm. Nitrogen content following N-min analysis was 26 kg N per ha in 0 to 90 cm depth. 400 seeds per m^2 were sown in 1.86 m by 5.5 m plots. Row spacing was 13 cm and seeding depth 3 cm. The treatments were supplied with either standard amount of nitrogen (180 kg N/ha) or reduced amount of nitrogen (50 kg N/ha). 269 days after planting, the wheat grains were harvested and weighed.

In assay [2] the test system is Spring wheat (cultivar Triso). As to the kind of experiment: Crop yield increase in spring wheat after seed treatment (field trial). Particulars: seed treatment 100 ml/100 kg seeds (Regent FS 500, 50 g per 100 kg seeds), harvest 130 days after planting. In kind it is in vivo.
Source text: as §1
Spring wheat seeds (cultivar Triso) were treated with fipronil (used as commercially available product Regent FS 500; an FS formulation containing 500 g/l of active compound; 50 g per 100 kg seeds) in a HEGE 11 seed treatment apparatus. A part of the seeds remained untreated (control). Five days after the treatment, the seeds were planted near Gommersheim, Palatine, Germany, in a loamy sand with a pH of 6.7, and a tilling depth of 30 cm. Nitrogen content following N-min analysis was 52 kg N per ha in 0 to 90 cm depth. 400 seeds per m^2 were sown in 1.86 m by 5.5 m plots. Row spacing was 13 cm and seeding depth 3 cm. The treatments were supplied with either standard amount of nitrogen (140 kg N/ha) or reduced amount of nitrogen (30 kg N/ha). 130 days after planting, the wheat grains were harvested and weighed.

In the case of `N#Cc1nn(-c2c(Cl)cc(C(F)(F)F)cc2Cl)c(N)c1[S+]([O-])C(F)(F)F` (stereo not shown) [fipronil], the Crop yield is recorded as 86.1 dt/ha in assay [1] (reduced nitrogen (50 kg N/ha), control 82.6); 87.4 dt/ha in assay [1] (standard nitrogen (180 kg N/ha), control 87.4); 51.4 dt/ha in assay [2] (reduced nitrogen (30 kg N/ha), control 47.0); 63.2 dt/ha in assay [2] (standard nitrogen (140 kg N/ha), control 62.8).
